Like-named read-outs stand apart in the source and are kept apart here.
Legend:
DRG neurites = settings: for reduction in DRG area versus day 0: vincristine 0.01 μM; for Area (DRG neuritic halo) / Length (longest neurite): Vin 0.01 μM, AK295 50 μM, EGTA 2 mM, sulfate salt
Procedure: On the day of DRG culture, the dishes are washed twice with PBS buffer (pH 7.4), filled with 550 μl medium and pre-incubated at 37 C for at least 2 hours. Fifteen-day old embryos (E15) are removed from pregnant Sprague-Dawley rats (Charles River), and spinal cords with cervical and thoracic DRGs attached are dissected into Leibovitz L-15 medium (GIBCO). Ganglia are separated from the spinal cord, stripped of their connective tissue sheaths and roots, and are then pooled and washed twice with PBS buffer (pH 7.4). DRGs are plated (4 per dish) in culture media and incubated at 37° C. in 5% carbon dioxide for 4 hours to allow DRGs to attach to the substrate. Medium is then added to bring the total volume to 1 ml. […] Calcium-free medium is prepared in the same manner, replacing MEM with S-MEM (GIBCO).
At the end of the treatment period (see below) DRGs are fixed for 30 minutes with 4% paraformaldehyde. Cultures are then rinsed with 0.1M TBS buffer, and treated sequentially with 3% H2O2, TBS-Triton, and 4% normal goat serum (NGS), each for 30 minutes at room temperature. DRGs are incubated at 4 C overnight in monoclonal antibody to MAP5 (1:500, Sigma). After washing in TBS-Triton, DRGs are incubated for 60 minutes in biotinylated secondary antibody, rinsed with TBS and reacted with avidin-biotin complex solution (ABC; Vector Labs) for one hour. Color is generated by incubation for 10 minutes in diaminobenzidine (DAB) solution, enhanced by addition of 0.025% cobalt chloride and 0.02% nickel ammonium sulfate. Stained tissue is rinsed, air dried and cover-slipped for microscopy with Crystal/Mount (Biomeda).
This method of allowing neuritic extension to proceed before addition of a neurotoxin tests the effect of the toxin on established neurites as opposed to the effect on primary neuritic outgrowth.
After day 5 of culture, the media is changed to that containing the experimental treatment. This date is defined as treatment day 0. Cultures are monitored and imaged daily using video microscopy. […] AK 295 (Z-leu-Abu-(CH2)3-4-morpholinyl, gift of Dr. James Powers, Georgia Institute of Technology), is dissolved in 100% DMSO and is then diluted to its final concentration with culture medium. The final concentration of DMSO is 0.05%. Phenylmethylsulfonyl fluoride (PMSF) is manufactured by and commercially available from Sigma.
After 6 days of treatment (11 days in culture) immunostained DRGs are quantitated for degree of axonal degeneration. Images of the DRGs and neurites are captured onto disk using a computerized video imaging system, and are analyzed using NIH Image version 1.61. DRG areas are calculated by tracing the outside circumference of the remaining culture halo. The length of the longest neurite of each DRG is measured from the center of the DRG to the distal end of the neurite, so that cultures without remaining neurites still have positive values. These quantitative data are subjected to ANOVA, with post-test correction for multiple comparisons.

[1] = tested on: C57BL/6 cultured neurites; assay: Vincristine neuropathy in C57BL/6 mouse DRG cultures; format: cell-based
Procedure: (§1) DRGs were allowed to mature for 5 days to create a lush halo of neurites. […] This date was defined as treatment day 0. […] Cultures were monitored and imaged on day 0, day 4, day 8 and day 10 of treatment using video microscopy.
(§2) Measures of axonal survival were the length of longest remaining axon, and the area of remaining DRG halo, as determined by serial phase-contrast video microscopy (FIG. 6). The axonal length was measured from the center of the DRG to the visible distal end of the axon. […] Data were thus analyzed as percent of day 0.

Wld^S cultured neurites = assay: Vincristine neuropathy in Wld^S mouse DRG cultures; format: cell-based; settings: for halo area at day 10 compared to day 0 / length of longest axons at day 10 compared to day 0: Wld^S
Procedure: as §1, §2

C57BL/6 DRG axons = assay: Vincristine withdrawal in C57BL/6 mouse DRG cultures; format: cell-based; settings: 0.05 μM vincristine for 24 hours, 4 days after exposure
Procedure: (§3) The methods for DRG culture have been previously described.
(§4) Cultures were measured for length of longest axon and area of the DRG halo at days 4, 8, 12, 16 and 20. Lengths were measured from the center of the DRG to the visible distal end of the axon, and areas were calculated by tracing the circumference crested by connecting the tips of the remaining axons. […] Comparisons were made between quantitative data for C57BL/6 and Wld^S axons. For assessment of growth, day 4 observations in Wld^S were compared to all succeeding days using ANOVA for repeated measures.

Wld^S DRG axons = assay: Vincristine withdrawal in Wld^S mouse DRG cultures; format: cell-based; settings: 0.05 μM vincristine for 24 hours
Procedure: as §3, §4

[2] = Day 3 of treatment, listed as Vin
[3] = Day 4 of treatment, listed as Vin
[4] = Day 6 of treatment, PMSF 50 μM, listed as Vin
[5] = vincristine 0.01 μM, Day 4, C57BL/6
[6] = vincristine 0.01 μM, Day 10, C57BL/6
[7] = vincristine 0.02 μM, Day 4, C57BL/6
[8] = vincristine 0.02 μM, Day 8, C57BL/6
[9] = vincristine 0.02 μM, Day 10, C57BL/6
[10] = vincristine 0.05 μM, Day 4, C57BL/6
[11] = vincristine 0.05 μM, Day 8, C57BL/6
[12] = vincristine 0.05 μM, Day 10, C57BL/6
[13] = vincristine 0.1 μM, Day 4, C57BL/6
[14] = vincristine 0.1 μM, Day 8, C57BL/6
[15] = vincristine 0.1 μM, Day 10, C57BL/6

Vincristine sulfate salt
process of axonal degeneration (in words) (DRG neurites; 0.01 μM): relatively slow | reduction in DRG area versus day 0 (DRG neurites; 4 days exposure): 91.5% | reduction in DRG area versus day 0 (DRG neurites; 6 days exposure): 97.9% | Area (DRG neuritic halo) (DRG neurites; [2]): 6.78 ± 1.06 (17) mm^2 | Length (longest neurite) (DRG neurites; [2]): 1.62 ± 0.19 mm | Area (DRG neuritic halo) (DRG neurites; Day 3 of treatment): 6.78±1.06 mm^2 | Length (longest neurite) (DRG neurites; Day 3 of treatment): 1.62±0.19 mm | Area (DRG neuritic halo) (DRG neurites; [3]): 2.45 ± 0.74 (13) mm^2 | Length (longest neurite) (DRG neurites; [3]): 0.91 ± 0.19 mm | Area (DRG neuritic halo) (DRG neurites; Day 4 of treatment): 2.45±0.74 mm^2 | Length (longest neurite) (DRG neurites; Day 4 of treatment): 0.91±0.19 mm | Area (DRG neuritic halo) (DRG neurites; [4]): 0.61 ± 0.21 (48) mm^2 | Length (longest neurite) (DRG neurites; [4]): 0.37 ± 0.06 mm | Area (DRG neuritic halo) (DRG neurites; Day 6 of treatment, PMSF 50 μM): 0.16±0.61 mm^2 | Length (longest neurite) (DRG neurites; Day 6 of treatment, PMSF 50 μM): 0.37±0.06 mm | time within which axonal degeneration occurs (DRG neurites; concentrations 0.05 μM, 5 day-old cultures): 1 to 3 days | reduction in length of the longest axons versus day 0 (DRG neurites; day 3, vincristine 0.01 μM): 57.6% | reduction in length of the longest axons versus day 0 (DRG neurites; day 4, vincristine 0.01 μM): 76.2% | reduction in length of the longest axons versus day 0 (DRG neurites; day 6, vincristine 0.01 μM): 90.3% | reduction in DRG area versus day 0 (DRG neurites; three days exposure): 76.6% | time until fibers are completely replaced by axonal debris (DRG neurites; vincristine exposure (FIG. 1: 0.01 μM)): 5 to 6 days | halo area at day 10 compared to day 0 ([1]; C57BL/6, vincristine 0.01 μM): 42.86±7.30% | length of longest axons at day 10 compared to day 0 ([1]; C57BL/6, vincristine 0.01 μM): 50.99±5.97% | halo area at day 10 compared to day 0 ([1]; C57BL/6, vincristine 0.1 μM): 0.45±0.09% | length of longest axons at day 10 compared to day 0 ([1]; C57BL/6, vincristine 0.1 μM): 3.56±0.62% | Area of DRG Halo [1, 5]: 7.34 ± 0.78 mm^2 | Length of Longest Neurite [1, 5]: 1.77 ± 0.12 mm | Area of DRG Halo ([1]; vincristine 0.01 μM, Day 8, C57BL/6): 5.79 ± 0.86 mm^2 | Area of DRG Halo [1, 6]: 4.42 ± 0.85 mm^2 | Length of Longest Neurite [1, 6]: 1.22 ± 0.17 mm | Area of DRG Halo [1, 7]: 4.56 ± 1.10 mm^2 | Length of Longest Neurite [1, 7]: 1.28 ± 0.22 mm | Area of DRG Halo [1, 8]: 1.14 ± 0.49 mm^2 | Length of Longest Neurite [1, 8]: 0.53 ± 0.16 mm | Area of DRG Halo [1, 9]: 0.56 ± 0.27 mm^2 | Length of Longest Neurite [1, 9]: 0.41 ± 0.13 mm | Area of DRG Halo [1, 10]: 1.20 ± 0.47 mm^2 | Length of Longest Neurite [1, 10]: 0.32 ± 0.08 mm | Area of DRG Halo [1, 11]: 0.05 ± 0.01 mm^2 | Length of Longest Neurite [1, 11]: 0.09 ± 0.01 mm | Area of DRG Halo [1, 12]: 0.04 ± 0.01 mm^2 | Length of Longest Neurite [1, 12]: 0.07 ± 0.01 mm | Area of DRG Halo [1, 13]: 0.46 ± 0.19 mm^2 | Length of Longest Neurite [1, 13]: 0.30 ± 0.09 mm | Area of DRG Halo [1, 14]: 0.04 ± 0.01 mm^2 | Length of Longest Neurite [1, 14]: 0.08 ± 0.01 mm | Area of DRG Halo [1, 15]: 0.04 ± 0.01 mm^2 | Length of Longest Neurite [1, 15]: 0.08 ± 0.01 mm | halo area at day 10 compared to day 0 (Wld^S cultured neurites; vincristine 0.01 μM): 64.75±2.62% | length of longest axons at day 10 compared to day 0 (Wld^S cultured neurites; vincristine 0.01 μM): 84.33±2.54% | halo area at day 10 compared to day 0 (Wld^S cultured neurites; vincristine 0.1 μM): 7.92±3.83% | length of longest axons at day 10 compared to day 0 (Wld^S cultured neurites; vincristine 0.1 μM): 10.17±3.22% | Area of DRG Halo (Wld^S cultured neurites; vincristine 0.01 μM, Day 4, Wld^S): 7.27 ± 0.51 mm^2 | Area of DRG Halo (Wld^S cultured neurites; vincristine 0.01 μM, Day 8, Wld^S): 6.50 ± 0.56 mm^2 | Area of DRG Halo (Wld^S cultured neurites; vincristine 0.01 μM, Day 10, Wld^S): 5.60 ± 0.51 mm^2 | Area of DRG Halo (Wld^S cultured neurites; vincristine 0.02 μM, Day 4, Wld^S): 5.95 ± 0.72 mm^2 | Area of DRG Halo (Wld^S cultured neurites; vincristine 0.02 μM, Day 8, Wld^S): 3.39 ± 0.64 mm^2 | Area of DRG Halo (Wld^S cultured neurites; vincristine 0.02 μM, Day 10, Wld^S): 2.53 ± 0.59 mm^2 | Area of DRG Halo (Wld^S cultured neurites; vincristine 0.05 μM, Day 4, Wld^S): 4.17 ± 0.45 mm^2 | Area of DRG Halo (Wld^S cultured neurites; vincristine 0.05 μM, Day 8, Wld^S): 1.63 ± 0.48 mm^2 | Area of DRG Halo (Wld^S cultured neurites; vincristine 0.05 μM, Day 10, Wld^S): 0.80 ± 0.36 mm^2 | Area of DRG Halo (Wld^S cultured neurites; vincristine 0.1 μM, Day 4, Wld^S): 5.30 ± 0.86 mm^2 | Area of DRG Halo (Wld^S cultured neurites; vincristine 0.1 μM, Day 8, Wld^S): 2.00 ± 0.66 mm^2 | Area of DRG Halo (Wld^S cultured neurites; vincristine 0.1 μM, Day 10, Wld^S): 0.59 ± 0.28 mm^2 | DRG area, % of control values (C57BL/6 DRG axons): 32% | axon length, % of control values (C57BL/6 DRG axons): 35% | duration of growth arrest (Wld^S DRG axons): 10 days | area after resumed growth, % of control values (Wld^S DRG axons; 20-day observation period): 150% | length after resumed growth, % of control values (Wld^S DRG axons; 20-day observation period): 125%

From US20040127439A1, “Introduction of the wld gene for prevention of axonal degeneration in neurological diseases” (priority 2004, published 2004)
